{
  "source": "patent US7803783B2",
  "about": "“Use of WNT inhibitors to augment therapeutic index of chemotherapy” (The Board of Trustees of the Leland Stanford Junior …, priority 2002, dated 2010)",
  "key": {"HSCs": {"system": "HSCs", "test": "Transplantation of Wnt3A-treated HSCs into lethally irradiated recipient mice", "format": "in vivo, mouse", "procedure": "To test whether the cells treated with purified Wnt3A underwent self-renewal functionally, purified HSCs were plated as 1 cell or as 10 cells, treated with Wnt3A and each well containing proliferating cells transplanted individually into lethally irradiated recipient mice along with 300,000 Sca-1^− Bone Marrow cells (A). […] Since the empirically observed frequency of reconstitution of resting HSCs is ˜10% and of cycling HSCs ˜2%, the observed frequency of reconstitution of 100% for 1 plated cells is consistent with Wnt3A inducing a 10- to 50-fold increase in HSC activity, a range similar to that seen with BCL-2 transgenic HSCs.\nIn vivo analysis of HSC function."}, "[1]": {"system": "wild type mouse bone marrow HSCs", "test": "In vitro HSC proliferation assay with purified Wnt3A", "format": "cell-based", "procedure": "FIGS. 5A-5D. Wild Type HSCs proliferate to purified Wnt3A. Purified wild type mouse bone marrow HSCs were sorted by FACS and plated at 5 or 10 cells/well into 60 well Terasaki plates. Cells were incubated in X-vivo 15 (Bio Whittaker), 10% FBS, 5×10^−5M 2-Mercaptoethanol, and 1×10^−4M random methylated beta-cyclodextrin (CTD, Inc.) in the presence of either purified Wnt3A (at approx. 100 ng/ml) plus SLF (10 ng/ml) or SLF (10 ng/ml) alone, as a control. (SLF dose required ranged from 7.5 ng/ml-100 ng/ml depending on mouse strain used). Cell growth was monitored over a period of 7-9 days in culture, and is shown as total cell response (A) and the average frequency of responding wells (B) representative of over 9 independent experiments. To determine phenotypic characteristics, cells were plated in bulk (3500 cells) in 96 well plates and incubated in the presence of purified or unpurified Wnt3A.\nPurified Wnt protein can regulate HSC self-renewal in the same manner as β-catenin in BCL-2 transgenic HSCs. To ensure that this response was not dependent on BCL-2 over-expression, we specifically tested whether wild type HSCs respond in a similar manner to purified Wnt3A as well. Over a period of days, HSCs plated at 1-20 cells per well, responded extremely robustly to Wnt3A in contrast to control conditions (e.g. 184 cells versus 0 when plated at 5 cells/well) (FIG. 5). The average frequency of cells that responded to Wnt3A over 3 independent experiments was 17-fold more than the proliferation to control conditions (limiting dose of SLF) when plated at 10 cells/well. […] Furthermore, the phenotypic characteristics of HSCs treated with purified or unpurified Wnt3A were dramatically different. […] Furthermore, a significant fraction of the lineage negative population expressed c-Kit and Sca-1 consistent with a HSC phenotype (D).\nIn vitro HSC proliferation assays. Freshly purified or virally transduced HSCs were plated at 1 to 20 cells per well in Terasaki plates. Cells were sorted into wells containing serum-free medium (X-vivo15, BioWhittaker) supplemented with 5×10^−5 M 2-mercaptoethanol and the indicated growth factors. Proliferation was monitored by counting the number of cells in each well at defined intervals. For longer-term cultures, transduced HSCs were plated in 96-well plates in the absence or presence of SLF (1 ng ml^−1), and the number of cells generated was monitored by cell counting at defined intervals. For inhibition of growth by CRD or axin, cells were cultured in the presence of mitogenic factors (SLF (30 ng ml^−1), Flt-3L (30 ng ml^−1), interleukin-6 (10 ng ml^−1))."}, "human bone marrow HSCs": {"system": "human bone marrow HSCs", "test": "Proliferation of human bone marrow HSCs with soluble Wnt3a", "format": "cell-based", "conditions": "absence of any other growth factor"}, "[2]": {"system": "LEF-1/TCF reporter (TOP-dGFP)", "test": "Lentiviral LEF-1/TCF reporter assay in HSCs in vitro", "format": "cell-based, mouse", "conditions": "HSCs stimulated with Wnt3a about 100 ng/ml"}},
  "data": [
    {"substance": "Wnt3a", "values": [
      {"measurement": "frequency of reconstitution", "setting": "HSCs; 1 plated cell treated with Wnt3A", "value": 100, "unit": "%"},
      {"measurement": "reconstitution efficiency", "setting": "HSCs; wells plated with 10 cells or 5 cells", "value": 100, "unit": "%"},
      {"measurement": "average frequency of cells that responded relative to control conditions", "setting": "[1]; 10 cells/well, 3 independent experiments, control limiting dose of SLF", "value": 17, "unit": "fold"},
      {"measurement": "lineage marker phenotype of treated HSCs", "setting": "[1]; after 7 days in culture", "value": "negative for lineage markers"},
      {"measurement": "total cell response", "setting": "[1]; plated at 5 cells/well, control 0", "value": 184, "unit": "cells"},
      {"measurement": "numbers of progeny generated by singly plated HSCs compared with control conditions", "setting": "[1]; singly plated HSCs, presence of Wnt3a", "value": "six-fold"},
      {"measurement": "proliferation of highly purified human bone marrow HSCs", "setting": "human bone marrow HSCs", "value": "induces proliferation"},
      {"measurement": "TOP-dGFP reporter activity (GFP expression)", "setting": "[2]", "value": "significant reporter activity"}
    ]}
  ]
}
